What all share (assay type): cell-based
The target in one assay is T1, PYR1-HAB1 (Arabidopsis thaliana, UniProt O49686).
T1 construct: the Pyr1 open reading frame was PCR amplified from genomic DNA; expressed in transfected cells; host or cells: yeast strain Y190
T1 sequence (O49686 1-191): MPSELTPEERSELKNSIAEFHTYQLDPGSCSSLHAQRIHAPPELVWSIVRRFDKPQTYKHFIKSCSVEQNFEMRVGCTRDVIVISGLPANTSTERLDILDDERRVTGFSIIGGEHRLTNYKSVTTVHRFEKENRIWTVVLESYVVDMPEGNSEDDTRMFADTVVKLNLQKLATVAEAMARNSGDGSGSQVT
T1 sequence (Q9CAJ0 23-511 partner): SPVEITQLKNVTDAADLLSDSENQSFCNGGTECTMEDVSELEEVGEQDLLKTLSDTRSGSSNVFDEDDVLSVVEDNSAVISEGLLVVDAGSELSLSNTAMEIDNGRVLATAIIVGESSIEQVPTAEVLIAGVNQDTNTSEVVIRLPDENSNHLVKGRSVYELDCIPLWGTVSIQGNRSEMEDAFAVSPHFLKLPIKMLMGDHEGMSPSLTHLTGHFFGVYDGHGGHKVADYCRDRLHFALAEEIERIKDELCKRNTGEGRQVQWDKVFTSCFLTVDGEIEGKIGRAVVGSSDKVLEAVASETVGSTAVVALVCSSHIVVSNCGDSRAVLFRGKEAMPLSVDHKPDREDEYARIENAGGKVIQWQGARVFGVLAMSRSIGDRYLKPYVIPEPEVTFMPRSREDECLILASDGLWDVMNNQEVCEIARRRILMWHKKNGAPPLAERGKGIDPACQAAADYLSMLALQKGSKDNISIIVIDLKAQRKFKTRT
The experiment in a line: Yeast two-hybrid BD-PYR1 / AD-HAB1 interaction, X-gal stain. The note with it: 10 μM, except epi-brassinolide (50 nM). On the procedure: (§1) Given that PYR1 is necessary for pyrabactin action and is a predicted ligand-binding protein, we hypothesized that pyrabactin agonizes ABA signaling by inducing a protein-protein interaction between PYR1 and a downstream effector. To test this, ˜2 million prey cDNA clones were screened against a PYR1 Y2H bait construct on media containing 10 μM pyrabactin. To create the PYR1 Y2H bait construct, the Pyr1 open reading frame was PCR amplified from genomic DNA and cloned to pGem-T easy vector (Promega). After sequence confirmation, the Pyr1 ORF was then cloned in-frame between EcoRI and SalI sites of the pBD-GAL4 Cam vector (Stratagene) and transformed into yeast strain Y190. For the screen, an etiolated seedling cDNA library (J. Kim, K., Harter, A., Theologis, Proc Natl Acad Sci USA 94, 11786 (Oct. 28, 1997)) (ABRC stock CD4-22) was used. The cDNA library was first converted from phage to plasmid DNA, yielding 7.6×10^7 transformants. Plasmid DNA prepared from library was then used to transform Y190 as described in the GAL4 Two-Hybrid system manual (Stratagene). For each screen, 40 μg of prey plasmid was transformed into 1 ml of competent Y190 cell harboring bait construct and then grown on SD agar plates lacking His, Leu, and Trp, but containing 15 mM 3-AT and 10 μM pyrabactin. After 4 days incubation at 30° C., well-grown colonies were rescued and interactions validated using filter lift assay or chloroform-agarose overlay method and X-Gal staining. This identified two pyrabactin-dependent hits which sequencing determined encoded cDNAs for the PP2C HAB1, a close relative of the well-characterized ABA response factor ABI1 (A. Saez et al., The Plant Journal 37, 354 (2004); N. Leonhardt et al., THE PLANT CELL 16, 596 (2004)). Next, Y2H strains expressing an AD-HAB1 fusion protein and a BD-PYR1 fusion protein were grown on plates and tested for interactions in response to various compounds, all at 10 μM except for epi-brassinolide (50 nM) and dimethyl sulfoxide (DMSO) (carrier solvent, 1%). […] Thus, PYR1 interacts with HAB1 in a (+)-ABA dependent fashion.

In the next assay the target is T2, PYL3-HAB1 (Arabidopsis thaliana, UniProt Q9SSM7).
T2 construct: BD-PYR/PYL fusion proteins were constructed in the same manner as for BD-PYR1 above; expressed in transfected cells; host or cells: yeast (Y190, as for BD-PYR1)
T2 sequence (Q9SSM7 1-209): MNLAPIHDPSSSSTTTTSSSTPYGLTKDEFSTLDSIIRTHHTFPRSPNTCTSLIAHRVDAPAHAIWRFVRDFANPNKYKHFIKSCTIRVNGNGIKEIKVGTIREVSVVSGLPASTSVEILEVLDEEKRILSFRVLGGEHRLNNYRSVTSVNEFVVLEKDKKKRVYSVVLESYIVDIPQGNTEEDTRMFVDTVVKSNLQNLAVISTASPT
T2 sequence (Q9CAJ0 23-511 partner): T1 sequence (Q9CAJ0 23-511 partner)
The assay can be described thus: Yeast two-hybrid BD-PYL3 / AD-HAB1 interaction. To be noted: 10 μM. On the procedure:
as §1
To see if ABA and pyrabactin responsiveness is unique to PYR1, we tested 11 of the 13 PYL proteins as described above, using Y2H strains expressing an AD-HAB1 fusion protein and a BD-PYR/PYL fusion protein (listed at the left of FIG. 3A). BD-PYR/PYL fusion proteins were constructed in the same manner as for BD-PYR1 above. […] Of these, only Pyr1 is highly transcribed in seeds, which likely explains why mutations in Pyr1 cause the seeds to be insensitive to pyrabactin. […] However the interactions of PYLs 5-12 with the PP2Cs are indicative that the entire protein family is likely to share a similar mechanism of action involving PP2C modulation, as we describe below. Thus, we conclude that entire family modulates ABA responses via PP2C interactions.
The yeast strains expressing PYR/PYL receptors and type 2 C protein phosphatases were also used to screen HPLC-fractionated plant extracts for the presence of endogenous compounds that activate PYL/PYL receptors PYR1, PYL2, PYL3, and/or PYL4. HPLC fractionation of extracts was used to identify compounds different from abscisic acid (the known agonist). […] Purification of the agonist was achieved via multiple rounds of chromatographic separation coupled to yeast two hybrid assays that informed the fractions to move forward at each step of the purification. The structure of the purified agonist was deduced by X-ray crystallography of crystalline purified agonist.

The next assay addresses T3, PYL2-HAB1 (Arabidopsis thaliana, UniProt O80992).
T3 construct: BD-PYR/PYL fusion proteins were constructed in the same manner as for BD-PYR1 above; expressed in transfected cells; host or cells: yeast (Y190, as for BD-PYR1)
T3 sequence (O80992 1-190): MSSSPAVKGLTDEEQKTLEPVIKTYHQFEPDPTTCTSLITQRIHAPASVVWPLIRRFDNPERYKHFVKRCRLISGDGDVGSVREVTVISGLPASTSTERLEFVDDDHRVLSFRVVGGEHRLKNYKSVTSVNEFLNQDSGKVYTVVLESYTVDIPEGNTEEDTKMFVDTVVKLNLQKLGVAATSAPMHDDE
T3 sequence (Q9CAJ0 23-511 partner): T1 sequence (Q9CAJ0 23-511 partner)
The experiment in a line: Yeast two-hybrid BD-PYL2 / AD-HAB1 interaction, X-gal stain. The note with it: 10 μM. On the procedure: as §1, with “fashion. […]” for “fashion.”

Take `O=S(=O)(NCc1ccccn1)c1ccc(Br)c2ccccc12` [pyrabactin]: the “PYR1-HAB1 interaction by X-gal stain” value on PYR1-HAB1 is “promotes interactions”. Moreover, the “PYL3-HAB1 interaction by X-gal stain” value at PYL3-HAB1 was “promotes interactions”.
In the case of `CC1=CC(=O)CC(C)(C)[C@@]1(O)/C=C/C(C)=C\C(=O)O` [ABA, Abscisic acid], the “PYL2-HAB1 interaction by X-gal stain” value on PYL2-HAB1 is “interact with HAB1 in an ABA-stimulated manner”. In addition, the “PYL3-HAB1 interaction by X-gal stain” value at PYL3-HAB1 was “interact with HAB1 in an ABA-stimulated manner”.
Take `CC1=CC(=O)CC(C)(C)C1(O)/C=C/C(C)=C\C(=O)O` (single isomer, unassigned; (+)) [(+)-ABA]: the “PYL2-HAB1 interaction by X-gal stain” value on PYL2-HAB1 is given as “respond”. Further, the “PYR1-HAB1 interaction by X-gal stain” value on PYR1-HAB1 is on record as “strong interactions”. In addition, the “PYL3-HAB1 interaction by X-gal stain” value at PYL3-HAB1 is “respond”.

The record behind these values is patent publication US10221426B2, “Constitutively active PYR/PYL receptor proteins for improving plant stress tolerance” (The Regents of the University of California, priority 2009, dated 2019).
